In patent publication US4902686A, “Tricyclic heterocyclic compounds and their use in treating benzodiazepin receptor-related ailments” (A/S Ferrosan, priority 1987, dated 1990):

System: benzodiazepine receptors
Test: in vivo displacement of 3H-flunitrazepam from brain benzodiazepine receptors in mice
Design: species or system mice (female, NMR)
Details: i.p. test substance 15 min before 3H-flunitrazepam i.v., dose reducing specific forebrain binding to 50% of control
Source text: The pharmaceutical properties of the compounds of the invention can be illustrated by determining their capability for displacing radioactive labelled flunitrazepam from benzodiazepine receptors.
The displacement activity of the compounds of the invention may be found by determining the ED50 value. The ED50 value represents the dose (mg/kg) of a test substance which causes the specific binding of flunitrazepam to benzodiazepine receptors in a living brain to be reduced to 50% of the control value.
Such an in vivo test is carried out as follows:
Principle. Twenty minutes after a dose of ^3 H-flunitrazepam (^3 H-FNM) (200μCi/kg, i.v.) the amount of specific ^3 H-FNM binding to brain benzodiazepine receptors has reached its maximal value.
Test procedure. Suspensions of test substances (2 mg/ml) are prepared in 5% Duphasol-X (TM Duphar, castor oil-ethylene oxide derivative for emulsifying and solubilizing oil and other water-insoluble substances) by sonification for 10 min using a Branson B15 microtip ultrasonifier (setting 7). Groups of three mice (female, NMR, 18-22 grams) are injected with the test substance at 100 mg/kg intraperitoneally. Fifteen minutes after test substance administration the mice are challenged with 4 μCi intravenously of ^3 H-FNM (70-90 Ci/mole) in 200 μl physiological saline. Twenty minutes after ^3 H-FNM administration mice are sacrificed by decapitation, the forebrains rapidly excised (within 30 sec) and homogenized in 12 ml of icecold 25 mM KH2 PO4, pH 7.1, using an Ultra-Turrax homogenizer fitted with an N 10 shaft. Two aliquots of 1 ml are immediately filtered through Whatman GF/C glassfibre filters and washed with 2×5 ml of the above mentioned buffer. The amounts of radioactivity on the filters are determined by conventional scintillation counting. One group of untreated mice serves as control. One to three mice are injected with 25 μg/kg clonazepam i.p. 30 minutes before ^3 H-FNM to determine the amount of non-specific ^3 H-FNM binding, which should be between 8-15% of total binding. When doses of 100 mg/kg inhibit more than 50% of specific ^3 H-flunitrazepam binding; test substances are administered in doses, which are factors of 3.16 times lower than 100 mg/kg. The ED50 for a test substance is defined as that dose which inhibits 50% of specific ^3 H-FNM binding. Specific binding is the amount of binding in controls minus the amount binding in clonazepam-treated mice.
Results. The ED50 value is determined from dose response curves. If only one dose of test substance is administered the ED50 value is calculated as follows, provided that the inhibition of specific binding is within the range of 25-75%: [formula] where Co is specific binding in controls and Cx is specific binding in mice treated with test substance.

| SMILES | in vivo bind. ED50 [mg/kg] |
| --- | --- |
| CCn1c(=O)c2c(-c3nc(C4CC4)no3)ncn2c2ccccc21 | 1.4 |
| Cc1nc(-c2ncn3c4cccc(C#C[Si](C)(C)C)c4c(=O)n(C)c23)no1 [4,5-Dihydro-4-methyl-3-(5-methyl-1,2,4-oxadiazol-3-yl)-5-oxo-6-trimethylsilylethynyl-imidazo(1,5-a)quinazoline] | 3.7 |
| Cn1c(=O)c2c(-c3nc(C4CC4)no3)ncn2c2cccnc21 | 0.9 |
| Cn1c(=O)c2c(Oc3ccc(F)cc3)cccc2n2cnc(-c3noc(C4CC4)n3)c12 | 2.9 |
| CCn1c(=O)c2c(-c3noc(C4CC4)n3)ncn2c2cccnc21 | 0.7 |
